Values of other authors in US7842686B2, “CGRP receptor antagonists” (Vertex Pharmaceuticals Incorporated, priority 2006, dated 2010).
No end group written: not given here.

Key:
facial blood flow [1] = details: marmoset, electrical stimulation of the trigeminal ganglion
[2] = tested on: acute attacks of migraine; details: clinical trials (Olesen et al. 2004)
middle meningeal artery = details: rats, electrical stimulation of the dura mater, prior administration
facial blood flow [3] = details: rat, trigeminal ganglion stimulation

Molecule	effect on increase in facial blood flow (facial blood flow [1])	efficacy in acute attacks of migraine [2]	effect on increase of middle meningeal artery diameter (middle meningeal artery)	effect on increase of facial blood flow (facial blood flow [3])
NCCCC[C@H](NC(=O)[C@@H](Cc1cc(Br)c(O)c(Br)c1)NC(=O)N1CCC(N2Cc3ccccc3NC2=O)CC1)C(=O)N1CCN(c2ccncc2)CC1 [BIBN4096BS]	could be blocked	effective in treating acute attacks of migraine		
CGRP(8-37): a peptide CGRP antagonist (VTHRLAGLLSRSGGVVKNNFVPTNVGSKAF-NH2; ends and bridges not checked; UniProt P06881 90-119, looked up, fragment)			blocked	inhibited
